Values after ≈ are worked out from the molar mass of the structure shown. Like-named read-outs stand apart in the source and are kept apart here.
Columns and labels:
fungal (fACC2) ACC2 = fungal (fACC2) ACC2 (UniProt Q00955); conditions: read-out: fACC2 IC50; fungal ACC2, ADP-Glo
[1] = tested on: C. parapsilosis ATCC 22019; experiment: Anti-Fungal (Candida) Activity Assay, broth microtiter MIC; type: cell-based; conditions: Lodderomyces parapsilosis, read-out: MIC C. parapsilosis ATCC 22019
In short: (§1)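 MIC by visual comparison of challenged wells with growth control, scored at 48 h. Setup: CLSI M27-A3 broth microtiter plates, RPMI 1640+MOPS medium, direct colony suspension from overnight Sabouraud agar cultures (35 °C, 24 h).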

C. albicans ATCC 90028 = experiment: as above; type: cell-based; conditions: read-out: MIC C. albicans ATCC 90028
In short: as §1

C. krusei ATCC 6258 = experiment: as above; type: cell-based; conditions: Pichia kudriavzevii, read-out: MIC C. krusei ATCC 6258
In short: as §1

human (hACC2) ACC2 = human (hACC2) ACC2 (Homo sapiens, UniProt O00763); experiment: In vitro Acetyl-CoA Carboxylase (ACC) inhibition assay (ADP-Glo), hACC2; type: biochemical
Protocol: The detailed procedure is as follows. […] 10 μL ADP glo reagent was added. […] 20 μL kinase detection reagent was added.
“NA” stands for “not assayed.”

Botrtyis cinerea (Bc) = experiment: Growth inhibition assay of fungal pathogens; type: cell-based; conditions: 48 h, read-out: Concentration at 90% Inhibition Bc
In short: (§2)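 OD600 (blank-subtracted) plus visual scoring at 48 h, vs 2% DMSO ctrl → % inhibition. Final cpd 50/10/2 or 2/0.4/0.08 ppm. Fm/Bc/Dm spores in 17% V8 broth; Rs as 1.5 mm plugs in ¼ PDB.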

Rhizoctonia solani (Rs) = experiment: Growth inhibition assay of fungal pathogens; type: cell-based; conditions: 48 h, read-out: Concentration at 90% Inhibition Rs
In short: as §2

[2] = tested on: Fusarium moniliforme (Fm); experiment: Growth inhibition assay of fungal pathogens; type: cell-based; conditions: Fusarium verticillioides, 48 h, read-out: Concentration at 90% Inhibition Fm
In short: as §2

[3] = tested on: Phytophthora capsici (Pc); experiment: Growth inhibition assay of fungal pathogens; type: cell-based; conditions: for IC90: Phytophthora capsici, read-out: Concentration at 90% Inhibition Pc
In short: (§3)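 Liquid-culture assay in which test compounds are applied at three final concentrations (50, 10, 2 ppm or 2, 0.4, 0.08 ppm). Inoculum levels follow 48 h growth curves for each fungus. Growth is monitored by OD600 and by eye, and the 48 h values give % inhibition against DMSO.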

[4] = tested on: Fusarium virguliforme (Fv); experiment: Growth inhibition assay of fungal pathogens; type: cell-based; conditions: 48 h
In short: as §3

Septoria tritici (St) = experiment: Growth inhibition assay of fungal pathogens; type: cell-based; conditions: for IC90: Zymoseptoria tritici, read-out: Concentration at 90% Inhibition St
In short: as §3

Diplodia maydis (Dm) = experiment: Growth inhibition assay of fungal pathogens; type: cell-based; conditions: Stenocarpella maydis, 48 h, read-out: Concentration at 90% Inhibition Dm
In short: as §2

[5] = tested on: Collectotrichum graminicola (Cg); experiment: Growth inhibition assay of fungal pathogens; type: cell-based; conditions: 48 h, read-out: Concentration at 90% Inhibition Cg
In short: as §3

[6] = ATCC22019, 3 replicates, MIC recorded at 48 h
[7] = ATCC90028, 3 replicates, MIC recorded at 48 h
[8] = ATCC6258, 3 replicates, MIC recorded at 48 h
[9] = Table 4b, 48 hours, read-out: Concentration at 90% Inhibition Fv
[10] = read-out: Concentration at 90% Inhibition Fv, Table 4b, 48 hours

Chain of human (hACC2) ACC2 (O00763 whole entry): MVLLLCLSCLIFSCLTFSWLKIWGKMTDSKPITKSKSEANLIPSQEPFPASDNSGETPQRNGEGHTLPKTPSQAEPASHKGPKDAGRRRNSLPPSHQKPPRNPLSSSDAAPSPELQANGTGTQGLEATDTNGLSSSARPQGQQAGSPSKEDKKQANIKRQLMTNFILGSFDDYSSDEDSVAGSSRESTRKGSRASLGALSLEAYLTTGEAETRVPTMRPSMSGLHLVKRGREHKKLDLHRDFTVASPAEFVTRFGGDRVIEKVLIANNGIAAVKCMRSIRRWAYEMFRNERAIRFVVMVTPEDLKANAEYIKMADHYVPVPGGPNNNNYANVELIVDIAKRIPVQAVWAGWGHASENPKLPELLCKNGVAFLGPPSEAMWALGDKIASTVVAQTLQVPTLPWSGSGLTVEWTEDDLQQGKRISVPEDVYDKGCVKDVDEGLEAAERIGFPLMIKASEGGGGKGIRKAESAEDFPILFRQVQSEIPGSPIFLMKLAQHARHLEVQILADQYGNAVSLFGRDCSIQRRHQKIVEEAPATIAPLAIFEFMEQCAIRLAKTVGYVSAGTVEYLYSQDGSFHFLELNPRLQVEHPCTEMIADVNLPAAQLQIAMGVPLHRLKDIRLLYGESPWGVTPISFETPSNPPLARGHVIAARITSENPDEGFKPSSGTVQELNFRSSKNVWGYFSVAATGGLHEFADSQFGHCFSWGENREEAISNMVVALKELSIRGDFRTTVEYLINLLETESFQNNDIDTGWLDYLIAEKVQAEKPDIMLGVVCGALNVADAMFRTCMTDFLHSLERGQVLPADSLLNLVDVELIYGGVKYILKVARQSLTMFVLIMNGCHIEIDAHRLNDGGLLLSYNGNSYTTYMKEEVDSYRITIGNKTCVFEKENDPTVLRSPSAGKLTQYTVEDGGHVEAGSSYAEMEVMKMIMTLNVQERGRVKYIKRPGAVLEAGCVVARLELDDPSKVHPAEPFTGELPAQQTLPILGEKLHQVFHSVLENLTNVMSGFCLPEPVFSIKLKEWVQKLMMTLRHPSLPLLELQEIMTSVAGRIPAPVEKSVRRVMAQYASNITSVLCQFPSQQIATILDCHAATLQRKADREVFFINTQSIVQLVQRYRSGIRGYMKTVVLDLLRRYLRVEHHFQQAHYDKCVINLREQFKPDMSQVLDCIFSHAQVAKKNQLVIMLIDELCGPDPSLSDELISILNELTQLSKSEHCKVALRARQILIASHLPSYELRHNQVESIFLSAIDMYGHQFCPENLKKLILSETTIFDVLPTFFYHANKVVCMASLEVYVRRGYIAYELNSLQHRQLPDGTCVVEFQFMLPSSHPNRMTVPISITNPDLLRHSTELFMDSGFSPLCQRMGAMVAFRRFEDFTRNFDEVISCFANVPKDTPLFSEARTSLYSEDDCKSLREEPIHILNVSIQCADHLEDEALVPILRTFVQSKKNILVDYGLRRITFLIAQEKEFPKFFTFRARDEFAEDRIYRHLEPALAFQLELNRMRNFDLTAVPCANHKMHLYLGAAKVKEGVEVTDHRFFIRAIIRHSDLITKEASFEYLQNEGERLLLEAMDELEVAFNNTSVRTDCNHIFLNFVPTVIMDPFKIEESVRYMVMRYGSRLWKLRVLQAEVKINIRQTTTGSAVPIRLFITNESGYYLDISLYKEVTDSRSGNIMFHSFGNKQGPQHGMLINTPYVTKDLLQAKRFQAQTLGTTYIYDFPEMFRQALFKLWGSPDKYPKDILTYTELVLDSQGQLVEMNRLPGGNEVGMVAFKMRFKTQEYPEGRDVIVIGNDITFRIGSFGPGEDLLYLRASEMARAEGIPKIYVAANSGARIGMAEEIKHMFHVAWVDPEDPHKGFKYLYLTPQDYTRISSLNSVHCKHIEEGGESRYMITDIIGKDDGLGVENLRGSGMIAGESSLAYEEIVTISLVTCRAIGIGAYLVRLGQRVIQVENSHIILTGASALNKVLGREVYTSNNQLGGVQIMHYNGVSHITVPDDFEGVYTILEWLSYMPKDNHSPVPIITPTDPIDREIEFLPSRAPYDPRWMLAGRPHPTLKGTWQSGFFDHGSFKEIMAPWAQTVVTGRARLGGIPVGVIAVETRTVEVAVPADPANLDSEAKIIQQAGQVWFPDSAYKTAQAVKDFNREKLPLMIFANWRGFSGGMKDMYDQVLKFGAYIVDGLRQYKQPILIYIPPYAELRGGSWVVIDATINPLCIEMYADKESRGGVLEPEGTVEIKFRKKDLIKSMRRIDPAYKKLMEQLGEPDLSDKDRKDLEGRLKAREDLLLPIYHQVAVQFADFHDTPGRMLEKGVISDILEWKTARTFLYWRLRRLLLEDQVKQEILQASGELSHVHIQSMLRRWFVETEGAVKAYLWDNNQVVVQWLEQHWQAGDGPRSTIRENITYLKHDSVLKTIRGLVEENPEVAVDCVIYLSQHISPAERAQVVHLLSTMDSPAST
Chain of fungal (fACC2) ACC2 (Q00955 whole entry): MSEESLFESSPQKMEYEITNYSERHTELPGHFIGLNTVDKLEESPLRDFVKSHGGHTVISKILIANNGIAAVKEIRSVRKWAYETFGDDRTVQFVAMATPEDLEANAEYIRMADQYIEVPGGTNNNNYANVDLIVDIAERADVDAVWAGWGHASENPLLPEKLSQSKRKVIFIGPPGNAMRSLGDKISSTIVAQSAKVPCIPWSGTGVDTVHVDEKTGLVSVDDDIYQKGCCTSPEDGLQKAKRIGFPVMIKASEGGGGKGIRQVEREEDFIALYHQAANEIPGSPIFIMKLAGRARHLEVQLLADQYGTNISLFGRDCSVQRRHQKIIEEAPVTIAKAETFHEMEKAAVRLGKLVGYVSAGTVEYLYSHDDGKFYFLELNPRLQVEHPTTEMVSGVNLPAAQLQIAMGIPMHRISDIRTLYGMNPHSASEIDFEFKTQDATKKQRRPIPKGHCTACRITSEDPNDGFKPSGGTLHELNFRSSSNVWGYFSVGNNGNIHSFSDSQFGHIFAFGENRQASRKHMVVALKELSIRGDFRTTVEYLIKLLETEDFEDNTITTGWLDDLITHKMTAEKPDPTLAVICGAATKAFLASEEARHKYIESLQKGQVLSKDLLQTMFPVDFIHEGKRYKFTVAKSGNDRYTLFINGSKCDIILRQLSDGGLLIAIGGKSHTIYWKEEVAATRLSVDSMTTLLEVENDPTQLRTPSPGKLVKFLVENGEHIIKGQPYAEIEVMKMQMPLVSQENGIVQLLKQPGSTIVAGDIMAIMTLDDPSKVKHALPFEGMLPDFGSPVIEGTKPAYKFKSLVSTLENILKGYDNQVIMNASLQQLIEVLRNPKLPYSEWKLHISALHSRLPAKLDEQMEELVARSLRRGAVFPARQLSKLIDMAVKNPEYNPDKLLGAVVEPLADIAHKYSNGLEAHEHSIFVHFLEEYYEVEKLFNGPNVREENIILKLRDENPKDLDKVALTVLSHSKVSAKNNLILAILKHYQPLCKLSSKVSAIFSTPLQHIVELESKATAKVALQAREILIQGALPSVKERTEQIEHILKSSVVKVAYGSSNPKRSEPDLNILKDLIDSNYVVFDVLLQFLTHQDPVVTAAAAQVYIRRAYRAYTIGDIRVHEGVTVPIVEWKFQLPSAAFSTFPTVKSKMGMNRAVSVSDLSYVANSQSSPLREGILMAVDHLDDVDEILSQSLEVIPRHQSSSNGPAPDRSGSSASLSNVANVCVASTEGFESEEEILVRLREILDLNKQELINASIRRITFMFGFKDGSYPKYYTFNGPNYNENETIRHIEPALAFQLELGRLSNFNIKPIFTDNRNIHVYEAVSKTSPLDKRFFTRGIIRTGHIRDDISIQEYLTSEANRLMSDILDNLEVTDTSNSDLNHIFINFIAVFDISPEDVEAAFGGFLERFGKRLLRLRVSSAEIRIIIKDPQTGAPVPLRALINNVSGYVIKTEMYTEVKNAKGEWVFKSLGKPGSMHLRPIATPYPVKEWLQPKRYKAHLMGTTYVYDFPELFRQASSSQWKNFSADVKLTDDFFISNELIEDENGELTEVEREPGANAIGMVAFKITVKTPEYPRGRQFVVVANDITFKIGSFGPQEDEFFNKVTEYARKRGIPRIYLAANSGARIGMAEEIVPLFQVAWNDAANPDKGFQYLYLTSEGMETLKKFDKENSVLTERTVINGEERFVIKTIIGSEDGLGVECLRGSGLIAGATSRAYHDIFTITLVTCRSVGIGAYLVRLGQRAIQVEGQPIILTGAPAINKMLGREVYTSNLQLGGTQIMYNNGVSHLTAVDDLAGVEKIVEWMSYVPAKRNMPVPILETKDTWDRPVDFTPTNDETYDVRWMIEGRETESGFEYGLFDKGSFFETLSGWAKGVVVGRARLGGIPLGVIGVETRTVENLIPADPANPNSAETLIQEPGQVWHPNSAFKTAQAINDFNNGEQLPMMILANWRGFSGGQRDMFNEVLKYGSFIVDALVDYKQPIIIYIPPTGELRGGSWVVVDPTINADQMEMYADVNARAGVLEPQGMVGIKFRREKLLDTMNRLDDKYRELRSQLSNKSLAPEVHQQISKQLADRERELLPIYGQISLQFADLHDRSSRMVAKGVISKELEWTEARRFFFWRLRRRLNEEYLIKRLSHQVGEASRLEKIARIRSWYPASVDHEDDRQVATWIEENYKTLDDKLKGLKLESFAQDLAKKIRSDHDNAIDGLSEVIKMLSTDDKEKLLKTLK

SMILES	IC50 (fungal (fACC2) ACC2) [nM]	MIC [1, 6] [µg/mL]	MIC (C. albicans ATCC 90028; [7]) [µg/mL]	MIC (C. krusei ATCC 6258; [8]) [µg/mL]	IC50 (human (hACC2) ACC2) [nM]	IC90 (Botrtyis cinerea (Bc); Table 4b) [µg/mL]	IC90 (Rhizoctonia solani (Rs); Table 4b) [µg/mL]	IC90 (Diplodia maydis (Dm); Table 4b) [µg/mL]	IC90 ([5]; Table 4b) [µg/mL]	other results
COCCO[C@@H](Cn1c(=O)n(C(C)C(=O)N2CCCC2)c(=O)c2c(C)c(-n3cccn3)sc21)c1cc(F)ccc1OC (mixture of isomers) [Compound I-54, 1-((R)-2-(5-fluoro-2-methoxyphenyl)-2-(2-methoxyethoxy)ethyl)-5-methyl-3-(1-oxo-1-(pyrrolidin-1-yl)propan-2-yl)-6-(1H-pyrazol-1-yl)thieno[2,3-d]pyrimidine-2,4(1H,3H)-dione]	0.6 to 3	> 4.1	> 4.1	> 4.1	10 to 40					
COc1ccc(F)cc1[C@H](Cn1c(=O)n(C(C)(C)C(=O)NC(C)C)c(=O)c2c(C)c(-n3cccn3)sc21)OCCO [Compound I-35, (R)-2-(1-(2-(5-fluoro-2-methoxyphenyl)-2-(2-hydroxy-ethoxy)ethyl)-5-methyl-2,4-dioxo-6-(1H-pyrazol-1-yl)-1,4-dihydrothieno[2,3-d]pyrimidin-3(2H)-yl)-N-isopropyl-2-methylpropanamide]	0.6 to 3				10 to 40	2 (≈ 3.4 µM)	2 (≈ 3.4 µM)	10 (≈ 17 µM)	2 (≈ 3.4 µM)	IC90 (Botrtyis cinerea (Bc); Table 4a): 2 µg/mL (≈ 3.4 µM); IC90 (Rhizoctonia solani (Rs); Table 4a): 2 µg/mL (≈ 3.4 µM); IC90 ([2]; Table 4a, 48 hours): 0.4 µg/mL (≈ 0.681 µM); IC90 ([2]; Table 4b, 48 hours): 0.4 µg/mL (≈ 0.681 µM); IC90 ([3]; Table 4a, 48 hours): > 50 µg/mL; Concentration at 90% Inhibition Pc ([3]; Table 4b, 48 hours): D (“D” provided a compound concentration of >50 ppm at 90% inhibition of fungal pathogens); IC90 ([4]; Table 4a, 48 hours, read-out: Concentration at 90% Inhibition Fv): 2 µg/mL (≈ 3.4 µM); IC90 [4, 9]: 2 µg/mL (≈ 3.4 µM); Concentration at 90% Inhibition St (Septoria tritici (St); Table 4b, 48 hours): D (“D” provided a compound concentration of >50 ppm at 90% inhibition of fungal pathogens); IC90 (Septoria tritici (St); Table 4a, 48 hours): > 50 µg/mL; IC90 (Diplodia maydis (Dm); Table 4a): > 50 µg/mL; IC90 ([5]; Table 4a): 2 µg/mL (≈ 3.4 µM)
COCCO[C@@H](Cn1c(=O)n(C(C)(C)C(=O)N2CCCC2)c(=O)c2c(C)c(-n3cccn3)sc21)c1cc(F)ccc1OC [Compound I-44, (R)-1-(2-(5-fluoro-2-methoxyphenyl)-2-(2-methoxy-ethoxy)ethyl)-5-methyl-3-(2-methyl-1-oxo-1-(pyrrolidin-1-yl)propan-2-yl)-6-(1H-pyrazol-1-yl)thieno[2,3-d]pyrimidine-2,4(1H,3H)-dione]	3 to 10				> 40	> 50	> 50	> 50	> 50	IC90 ([2]; Table 4b, 48 hours): 10 µg/mL (≈ 16.3 µM); IC90 ([3]; Table 4b, 48 hours): > 50 µg/mL; IC90 [4, 9]: 10 µg/mL (≈ 16.3 µM); IC90 (Septoria tritici (St); Table 4b, 48 hours): > 50 µg/mL
Cc1c(-n2cccn2)sc2c1c(=O)n(C(C)(C)C(=O)NC(C)C)c(=O)n2C[C@H](OC1CCOCC1)c1cc(F)ccc1OCCO [Compound I-48]	0.6 to 3	> 4.1	> 4.1	> 4.1	3 to 10					
COCCOc1ccc(F)cc1[C@H](Cn1c(=O)n(C(C)(C)C(=O)NC(C)C)c(=O)c2c(C)c(-n3cccn3)sc21)OC1CCOCC1 [Compound I-49]	0.6 to 3	> 4.1	> 4.1	1.1 to 2 (≈ 1.64 to 2.98 µM)	3 to 10					
Cc1c(-n2cccn2)sc2c1c(=O)n(C(C)(C)C(=O)NC(C)C)c(=O)n2C[C@H](OC1CCOCC1)c1cc(F)ccc1OCC1COC1 [Compound I-50]	0.6 to 3	> 4.1	> 4.1	> 4.1	3 to 10					
Cc1c(-n2cccn2)sc2c1c(=O)n(C(C)(C)C(=O)N1CCCC1)c(=O)n2C[C@H](OC1CCOCC1)c1cc(F)ccc1OCCO [Compound I-51]	0.6 to 3	2.1 to 4 (≈ 3.14 to 5.97 µM)	1.1 to 2 (≈ 1.64 to 2.99 µM)	0.25 to 1 (≈ 0.373 to 1.49 µM)	3 to 10					
COCCOc1ccc(F)cc1[C@H](Cn1c(=O)n(C(C)(C)C(=O)N2CCCC2)c(=O)c2c(C)c(-n3cccn3)sc21)OC1CCOCC1 [Compound I-52]	0.6 to 3	1.1 to 2 (≈ 1.61 to 2.92 µM)	2.1 to 4 (≈ 3.07 to 5.85 µM)	1.1 to 2 (≈ 1.61 to 2.92 µM)	3 to 10					
Cc1c(-n2cccn2)sc2c1c(=O)n(C(C)(C)C(=O)N1CCCC1)c(=O)n2C[C@H](OC1CCOCC1)c1cc(F)ccc1OCC1COC1 [Compound I-53]	0.6 to 3	2.1 to 4 (≈ 3.02 to 5.75 µM)	> 4.1	1.1 to 2 (≈ 1.58 to 2.87 µM)	3 to 10					
COCCO[C@@H](Cn1c(=O)n(C(C)C(=O)NC(C)C)c(=O)c2c(C)c(-n3cccn3)sc21)c1cc(F)ccc1OC (stereo partly drawn) [Compound I-55]	0.6 to 3	2.1 to 4 (≈ 3.57 to 6.81 µM)	2.1 to 4 (≈ 3.57 to 6.81 µM)	2.1 to 4 (≈ 3.57 to 6.81 µM)	3 to 10					
COCCO[C@@H](Cn1c(=O)n(C(C)C(N)=O)c(=O)c2c(C)c(-n3cccn3)sc21)c1cc(F)ccc1OC (stereo partly drawn) [Compound I-56]	10 to 40	> 4.1	> 4.1	> 4.1	> 40					
COCCO[C@@H](Cn1c(=O)n(C(C)C(=O)O)c(=O)c2c(C)c(-n3cccn3)sc21)c1cc(F)ccc1OC (stereo partly drawn) [Compound I-57]	10 to 40	> 4.1	> 4.1	> 4.1	10 to 40					
COCCO[C@@H](Cn1c(=O)n([C@@H](C)C(=O)N2CCCC2)c(=O)c2c(C)c(-n3cccn3)sc21)c1cc(F)ccc1OC [Compound I-75, 1-((R)-2-(5-fluoro-2-methoxyphenyl)-2-(2-methoxyethoxy)ethyl)-5-methyl-3-((S)-1-oxo-1-(pyrrolidin-1-yl)propan-2-yl)-6-(1H-pyrazol-1-yl)thieno[2,3-d]pyrimidine-2,4(1H,3H)-dione]	0.6 to 3				3 to 10	2 (≈ 3.34 µM)	0.08 (≈ 0.133 µM)	2 (≈ 3.34 µM)	2 (≈ 3.34 µM)	IC90 ([2]; Table 4b, 48 hours): 0.08 µg/mL (≈ 0.133 µM); IC90 ([3]; Table 4b, 48 hours): > 50 µg/mL; IC90 [4, 9]: 0.4 µg/mL (≈ 0.667 µM); IC90 (Septoria tritici (St); Table 4b, 48 hours): > 50 µg/mL
COc1ccc(F)cc1[C@H](Cn1c(=O)n(C(C)(C)C(=O)NC(C)C)c(=O)c2c(C)c(-n3cccn3)sc21)OCCC#N [Compound I-78, (R)-2-(1-(2-(2-cyanoethoxy)-2-(5-fluoro-2-methoxyphenyl)ethyl)-5-methyl-2,4-dioxo-6-(1H-pyrazol-1-yl)-1,4-dihydrothieno[2,3-d]pyrimidin-3(2H)-yl)-N-isopropyl-2-methylpropanamide]	0.6 to 3				10 to 40	10 (≈ 16.8 µM)	10 (≈ 16.8 µM)	> 50	> 50	IC90 [2]: 10 µg/mL (≈ 16.8 µM); IC90 ([3]; 48 h, Table 4b): > 50 µg/mL; IC90 [4, 10]: > 50 µg/mL; IC90 (Septoria tritici (St); 48 h, Table 4b): > 50 µg/mL
COc1ccccc1[C@H](Cn1c(=O)n(C(C)(C)C(=O)O)c(=O)c2c(C)c(-n3cccn3)sc21)OCCC#N [Compound I-79]	0.6 to 3				3 to 10	0.4 (≈ 0.744 µM)	0.08 (≈ 0.149 µM)	0.4 (≈ 0.744 µM)	0.4 (≈ 0.744 µM)	IC90 ([2]; Table 4b, 48 hours): 0.08 µg/mL (≈ 0.149 µM); IC90 ([3]; Table 4b, 48 hours): > 50 µg/mL; IC90 [4, 9]: 0.4 µg/mL (≈ 0.744 µM); IC90 (Septoria tritici (St); Table 4b, 48 hours): 10 µg/mL (≈ 18.6 µM)
COc1ccc(F)cc1[C@@H](O)Cn1c(=O)n(C(C)(C)C(=O)NC(C)C)c(=O)c2c(C)c(-n3cccn3)sc21 [Compound I-86, (R)-2-(1-(2-(5-fluoro-2-methoxyphenyl)-2-hydroxyethyl)-5-methyl-2,4-dioxo-6-(1H-pyrazol-1-yl)-1,4-dihydrothieno[2,3-d]pyrimidin-3(2H)-yl)-N-isopropyl-2-methylpropanamide]					3 to 10	2 (≈ 3.68 µM)	0.4 (≈ 0.736 µM)	10 (≈ 18.4 µM)	2 (≈ 3.68 µM)	IC90 [2]: 0.4 µg/mL (≈ 0.736 µM); IC90 ([3]; 48 h, Table 4b): > 50 µg/mL; IC90 [4, 10]: 0.4 µg/mL (≈ 0.736 µM); IC90 (Septoria tritici (St); 48 h, Table 4b): > 50 µg/mL; MIC ([1]; ATCC22019, 48 h): 0.25 to 1 µg/mL (≈ 0.46 to 1.84 µM); MIC (C. albicans ATCC 90028; ATCC90028, 48 h): 1.1 to 2 µg/mL (≈ 2.02 to 3.68 µM); MIC (C. krusei ATCC 6258; ATCC6258, 48 h): 1.1 to 2 µg/mL (≈ 2.02 to 3.68 µM)

Source: patent US10941158B2, “Pyrazole ACC inhibitors and uses thereof” (Gilead Apollo, LLC, priority 2015, dated 2021)
